Patent publication US20240158392A1 (Janssen Biotech, Inc., priority 2021, published 2024)

target: SIK2 (Homo sapiens, UniProt Q9H0K1); assay: SIK2 Enzymatic Assay High Version 2 (High ATP); assay type: biochemical; details: not given
How it was run: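 At room temperature, enzyme (6 nM, 2× final) was preincubated with compound for 30 min, then 6 mM ATP and 400 μM HDAC5tide (both 2× final) were added for 2 h. ADP formed was measured by ADP-Glo Max (2 h reagent, 1 h detection) using luminescence.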

Sequence of SIK2 (Q9H0K1 whole entry, species assumed): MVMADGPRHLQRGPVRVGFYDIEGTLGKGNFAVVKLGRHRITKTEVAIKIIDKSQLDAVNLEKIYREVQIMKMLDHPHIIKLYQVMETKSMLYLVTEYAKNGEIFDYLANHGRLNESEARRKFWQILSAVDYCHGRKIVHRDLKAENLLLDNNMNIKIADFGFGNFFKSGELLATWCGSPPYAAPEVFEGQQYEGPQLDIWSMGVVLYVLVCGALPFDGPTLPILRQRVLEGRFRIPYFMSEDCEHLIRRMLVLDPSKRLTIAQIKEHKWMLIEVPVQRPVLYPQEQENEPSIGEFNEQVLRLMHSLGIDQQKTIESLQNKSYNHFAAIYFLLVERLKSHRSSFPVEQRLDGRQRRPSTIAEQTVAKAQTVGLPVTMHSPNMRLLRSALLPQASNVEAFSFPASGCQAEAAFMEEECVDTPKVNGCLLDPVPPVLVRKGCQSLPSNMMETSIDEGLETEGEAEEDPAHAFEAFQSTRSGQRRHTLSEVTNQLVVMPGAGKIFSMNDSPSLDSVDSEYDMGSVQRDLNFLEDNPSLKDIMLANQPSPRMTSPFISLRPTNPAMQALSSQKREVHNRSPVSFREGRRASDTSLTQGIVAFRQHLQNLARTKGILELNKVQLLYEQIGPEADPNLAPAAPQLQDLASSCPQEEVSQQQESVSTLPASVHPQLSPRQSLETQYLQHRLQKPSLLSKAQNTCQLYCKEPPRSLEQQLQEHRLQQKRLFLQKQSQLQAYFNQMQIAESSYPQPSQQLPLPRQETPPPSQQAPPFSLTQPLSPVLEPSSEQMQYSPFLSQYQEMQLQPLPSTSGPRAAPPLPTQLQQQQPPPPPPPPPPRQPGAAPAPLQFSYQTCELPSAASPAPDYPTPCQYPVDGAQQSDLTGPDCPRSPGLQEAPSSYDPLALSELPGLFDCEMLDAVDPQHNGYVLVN

SMILES	IC50 [µM]
Cc1cc(-c2ccn3nc(Nc4ccnnc4)cc3c2)c(O[C@H]2C[C@H]3COC[C@@H](C2)N3)cn1 [Example 368, 5-[2-methyl-5-[[(1S,5R,7s)-3-oxa-9-azabicyclo[3.3.1]nonan-7-yl]oxy]-4-pyridyl]-N-pyridazin-4-yl-pyrazolo[1,5-a]pyridin-2-amine]	< 0.000847
Cc1cc(-c2ccn3nc(Nc4cccnn4)cc3c2)c(O[C@H]2C[C@H]3CC[C@@H](C2)N3C)cn1 [Example 514, 5-[2-methyl-5-[[(1S,5R)-8-methyl-8-azabicyclo[3.2.1]octan-3-yl]oxy]-4-pyridyl]-N-pyridazin-3-yl-pyrazolo[1,5-a]pyridin-2-amine]	0.0303
Cc1cc(-c2cn3cc(NC(=O)C4CC4)nc3cn2)c(O[C@H]2C[C@H]3COC[C@@H](C2)N3)cn1 [Example 505, N-[6-[2-methyl-5-[[(1S,5R)-3-oxa-9-azabicyclo[3.3.1]nonan-7-yl]oxy]-4-pyridyl]imidazo[1,2-a]pyrazin-2-yl]cyclopropanecarboxamide]	0.012
Cc1cc(-c2ccn3nc(Nc4cc(F)n(C)n4)cc3c2)c(O[C@H]2C[C@H]3COC[C@@H](C2)N3)cn1 [Example 397, N-(5-fluoro-1-methyl-pyrazol-3-yl)-5-[2-methyl-5-[[(1S,5R,7s)-3-oxa-9-azabicyclo[3.3.1]nonan-7-yl]oxy]-4-pyridyl]pyrazolo[1,5-a]pyridin-2-amine]	0.00133
Cc1cc(-c2ccn3nc(Nc4cc(C)nc(C)n4)cc3c2)c(OC[C@H]2CCN2C)cn1 [Example 527, N-(2,6-dimethylpyrimidin-4-yl)-5-[2-methyl-5-[[(2R)-1-methylazetidin-2-yl]methoxy]-4-pyridyl]pyrazolo[1,5-a]pyridin-2-amine]	0.0081
CCN1[C@@H]2COC[C@H]1C[C@@H](Oc1cnc(C)cc1-c1ccn3nc(NC(=O)C4CC4)cc3c1)C2 [Example 161, 7-endo-N-(5-(5-(((1R,5S,7s)-9-ethyl-3-oxa-9-azabicyclo[3.3.1]nonan-7-yl)oxy)-2-methylpyridin-4-yl)pyrazolo[1,5-a]pyridin-2-yl)cyclopropanecarboxamide]	< 0.000847
CNC(=O)c1ccc(Nc2cc3cc(-c4cc(C)ncc4O[C@H]4C[C@H]5COC[C@@H](C4)N5CC(C)(C)O)ccn3n2)nc1 [Example 532, 6-[[5-[5-[[(1S,5R)-9-(2-hydroxy-2-methyl-propyl)-3-oxa-9-azabicyclo[3.3.1]nonan-7-yl]oxy]-2-methyl-4-pyridyl]pyrazolo[1,5-a]pyridin-2-yl]amino]-N-methyl-pyridine-3-carboxamide]	0.0135
O=C(Nc1cc2cc(-c3cc(Cl)ncc3O[C@@H]3C[C@H]4COC[C@@H](C3)N4)ccn2n1)C1CC1 [Example 492, N-[5-[2-chloro-5-[[(1S,5R)-3-oxa-9-azabicyclo[3.3.1]nonan-7-yl]oxy]-4-pyridyl]pyrazolo[1,5-a]pyridin-2-yl]cyclopropanecarboxamide]	0.0516
Cc1cc(-c2ccn3nc(Nc4ccc(=O)n(C)n4)cc3c2)c(O[C@H]2C[C@H]3COC[C@@H](C2)N3)cn1 [Example 401, 2-methyl-6-[[5-[2-methyl-5-[[(1S,5R,7s)-3-oxa-9-azabicyclo[3.3.1]nonan-7-yl]oxy]-4-pyridyl]pyrazolo[1,5-a]pyridin-2-yl]amino]pyridazin-3-one]	0.0161
Cc1cc(-c2ccn3nc(Nc4cc(F)n(C)n4)cc3c2)c(O[C@H]2C[C@H]3COC[C@@H](C2)N3C)cn1 [Example 120, N-(5-fluoro-1-methyl-1H-pyrazol-3-yl)-5-(2-methyl-5-(((1R,5S,7s)-9-methyl-3-oxa-9-azabicyclo[3.3.1]nonan-7-yl)oxy)pyridin-4-yl)pyrazolo[1,5-a]pyridin-2-amine]	< 0.000847
Cc1cc(-c2ccn3nc(NC(=O)C4CC4)cc3c2)c(OC[C@@H]2CCN2)cn1 [Example 526, N-[5-[5-[[(2S)-azetidin-2-yl]methoxy]-2-methyl-4-pyridyl]pyrazolo[1,5-a]pyridin-2-yl]cyclopropanecarboxamide]	0.0198
Cc1cc(-c2ccn3nc(NC(=O)C4CC4(F)F)cc3c2)c(OC[C@H]2CCN2C)cn1 (stereo partly drawn) [Example 624, 2,2-difluoro-N-[5-[2-methyl-5-[[(2R)-1-methylazetidin-2-yl]methoxy]-4-pyridyl]pyrazolo[1,5-a]pyridin-2-yl]cyclopropanecarboxamide]	0.00329
CNC(=O)c1cccc(Nc2cc3cc(-c4cc(C)ncc4O[C@H]4C[C@H]5COC[C@@H](C4)N5)ccn3n2)n1 [Example 367, N-methyl-6-[[5-[2-methyl-5-[[(1S,5R,7s)-3-oxa-9-azabicyclo[3.3.1]nonan-7-yl]oxy]-4-pyridyl]pyrazolo[1,5-a]pyridin-2-yl]amino]pyridine-2-carboxamide]	0.00681
Cc1cc(-c2ccn3nc(NC(=O)C4CC4)cc3c2)c(OC[C@@H]2CCN2CCF)cn1 [Example 573, N-[5-[5-[[(2S)-1-(2-fluoroethyl)azetidin-2-yl]methoxy]-2-methyl-4-pyridyl]pyrazolo[1,5-a]pyridin-2-yl]cyclopropanecarboxamide]	0.074

same assay, conditions: enzyme 6 nM, 6 mM ATP and 400 μM HDAC5tide (each 2× final concentration); 30 minutes pre-incubation, 2 hours; ADP-Glo Max luminescence; read-out: SIK2 high ATP IC50 (μM) (Test Example 2)

SMILES	IC50 [µM]
Cc1cc(Nc2cc3cc(-c4cc(OC(F)F)ncc4OCC(C)(C)C#N)ccn3n2)nc(N2CCOCC2)n1 [Example 710, 3-[[6-(difluoromethoxy)-4-[2-[(6-methyl-2-morpholino-pyrimidin-4-yl)amino]pyrazolo[1,5-a]pyridin-5-yl]-3-pyridyl]oxy]-2,2-dimethyl-propanenitrile]	0.0094
Cc1cc(-c2ccn3nc(Nc4cnc5cc[nH]c5n4)cc3c2)c(O[C@H]2CC[C@H](O)CC2)cn1 [Example 289, 4-[[6-methyl-4-[2-(5H-pyrrolo[2,3-b]pyrazin-3-ylamino)pyrazolo[1,5-a]pyridin-5-yl]-3-pyridyl]oxy]cyclohexanol]	0.00114
Cc1cc(-c2ccn3nc(Nc4cc(C)nc(C)n4)cc3c2)c(OC[C@H]2CCO[C@H]2C)cn1 (single isomer, unassigned) [Example 206, N-(2,6-dimethylpyrimidin-4-yl)-5-(2-methyl-5-(((2*S,3*R)-2-methyltetrahydrofuran-3-yl)methoxy)pyridin-4-yl)pyrazolo[1,5-a]pyridin-2-amine]	0.0175
Cc1cc(-c2ccn3nc(Nc4ccn(C)n4)cc3c2)c(OCC2(N)CC(F)(F)C2)cn1 [Example 162, 5-[5-[(1-amino-3,3-difluoro-cyclobutyl)methoxy]-2-methyl-4-pyridyl]-N-(1-methylpyrazol-3-yl)pyrazolo[1,5-a]pyridin-2-amine]	0.0196

Second part, the molecule after the results:

IC50 [µM]	SMILES
0.00132	Cc1cc(-c2ccn3nc(Nc4ccc5cc[nH]c5n4)cc3c2)c(OCC(C)(C)C#N)cn1 [Example 307, 2,2-dimethyl-3-[[6-methyl-4-[2-(1H-pyrrolo[2,3-b]pyridin-6-ylamino)pyrazolo[1,5-a]pyridin-5-yl]-3-pyridyl]oxy]propanenitrile]
0.00247	Cc1cc(-c2ccn3nc(NC(=O)C4CC4)cc3c2)c(OC2CCC(O)(C(C)C)CC2)cn1 (stereo not shown) [Example 196]
0.00284	Cc1cnc(Nc2cc3cc(-c4cc(C)ncc4OC[C@]45CN[C@H](CO4)C5)ccn3n2)cn1 [Example 251, 5-[2-methyl-5-[[(1S,4S)-5-oxa-2-azabicyclo[2.2.1]heptan-4-yl]methoxy]-4-pyridyl]-N-(5-methylpyrazin-2-yl)pyrazolo[1,5-a]pyridin-2-amine]
0.0055	Cc1cc(-c2ccn3nc(Nc4cc(C)nc(C)n4)cc3c2)c(OC2CCS(=O)(=O)CC2)cn1 [Example 550, N-(2,6-dimethylpyrimidin-4-yl)-5-[5-(1,1-dioxothian-4-yl)oxy-2-methyl-4-pyridyl]pyrazolo[1,5-a]pyridin-2-amine]
0.0057	Cc1cc(-c2ccn3nc(Nc4cc(C)c(=O)n(C)n4)cc3c2)c(OC[C@@](C)(N)C(F)(F)F)cn1 (single isomer, unassigned) [Example 311, (*R)-6-[[5-[5-(2-amino-3,3,3-trifluoro-2-methyl-propoxy)-2-methyl-4-pyridyl]pyrazolo[1,5-a]pyridin-2-yl]amino]-2,4-dimethyl-pyridazin-3-one]
0.0829	Cc1cc(-c2ccn3nc(Nc4cc(C)nc(C)n4)cc3c2)c(O[C@H]2CCS(=O)(=O)NC2)cn1 (single isomer, unassigned) [Example 610, (*S)—N-(2,6-dimethylpyrimidin-4-yl)-5-[5-(1,1-dioxothiazinan-4-yl)oxy-2-methyl-4-pyridyl]pyrazolo[1,5-a]pyridin-2-amine]
0.1	Cc1cc(-c2ccn3nc(Nc4cc(C)nc(C)n4)cc3c2)c(OC[C@H]2CC3(CCC3)CO2)cn1 (single isomer, unassigned) [Example 607, (*R)—N-(2,6-dimethylpyrimidin-4-yl)-5-[2-methyl-5-(7-oxaspiro[3.4]octan-6-ylmethoxy)-4-pyridyl]pyrazolo[1,5-a]pyridin-2-amine]
0.087	Cc1cc(-c2ccn3nc(Nc4cc(C)nc(C)n4)cc3c2)c(OC[C@H]2C[C@@H](O)CO2)cn1 [Example 204, (3R,5R)-5-[[4-[2-[(2,6-dimethylpyrimidin-4-yl)amino]pyrazolo[1,5-a]pyridin-5-yl]-6-methyl-3-pyridyl]oxymethyl]tetrahydrofuran-3-ol]
0.00234	Cc1cc(-c2ccn3nc(NC(=O)C4CC4)cc3c2)c(OCC2(C#N)CNC2)cn1 [Example 221, N-[5-[5-[(3-cyanoazetidin-3-yl)methoxy]-2-methyl-4-pyridyl]pyrazolo[1,5-a]pyridin-2-yl]cyclopropanecarboxamide]
0.00198	Cc1cc(-c2ccn3nc(Nc4cc(C)nc(C)n4)cc3c2)c(O[C@H]2C[C@H](NS(C)(=O)=O)C2)cn1 [Example 580, N-[3-[[4-[2-[(2,6-dimethylpyrimidin-4-yl)amino]pyrazolo[1,5-a]pyridin-5-yl]-6-methyl-3-pyridyl]oxy]cyclobutyl]methanesulfonamide]
